Data as given in patent publication US12145947B2, “Pyrimidine based modulators and uses thereof” (Quanta Therapeutics, Inc., priority 2022, dated 2024).

Key:
Assay type in all cases: binding
KRAS G12D/RAF1 = target: T1, KRAS G12D/RAF1 (Homo sapiens, UniProt P01116, G12D); experiment: Protein-protein interaction (PPI) HTRF assay KRAS G12D/RAF1
T1 construct: His6-MBP (N, cleaved yes); made in house; host or cells: E. coli
Summary of the method: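 HTRF pairing of His-tagged RAF1 (52-131) plus Tb-cryptate donor with GppNHp-exchanged biotin-RAS (KRAS 1-169 wt/G12D/G12V, NRAS wt) plus streptavidin-d2 acceptor; compound sits 30 min with RAS first, then 1 h RT with RAF1. IC50 derived from 665/615 ratio, untagged RAF1 defining full inhibition.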

KRAS G12V/RAF1 = target: T2, KRAS G12V/RAF1 (Homo sapiens, UniProt P01116, G12V); experiment: Protein-protein interaction (PPI) HTRF assay KRAS G12V/RAF1; conditions: Table 3; KRASG12V/RAF1
T2 construct: His6-MBP (N, cleaved yes); made in house; host or cells: E. coli
T2 sequence (P01116 with tags, fused parts or gaps isoform P01116-2 G12V): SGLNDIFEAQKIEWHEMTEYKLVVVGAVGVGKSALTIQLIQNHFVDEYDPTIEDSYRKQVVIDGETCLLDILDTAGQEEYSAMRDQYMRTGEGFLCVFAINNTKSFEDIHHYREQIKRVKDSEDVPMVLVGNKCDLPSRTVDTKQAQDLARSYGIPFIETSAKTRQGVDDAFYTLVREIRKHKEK
Procedure: (§1) Biotinylated KRAS wt and KRAS G12DNV proteins were expressed and purified in conditions similar to those previously reported (Tran, et al., 2021) (Zhang, et al., 2020). Briefly, KRAS (1-169) proteins were expressed in E. coli at 18° C. with an upstream TEV cleavage site (ENLFYQS (SEQ ID NO: 6)) followed an Avi tag sequence ([…] (SEQ ID NO: 7)). KRAS expression constructs contained both a His6 (SEQ ID NO: 8) and maltose-binding protein (MBP) tags at the N-terminus for Ni-NTA column purification prior to overnight TEV cleavage and MBP column purification. The avi-tagged NRAS expression construct contained both a His6 tag (SEQ ID NO: 8) and SUMO cleavage sige at the N-terminus for Ni-NTA column purification followed by His-ULPi digestion overnight. […]
(§2) When RAS proteins are in the active GTP-bound conformation, they bind the effector protein RAF1 at the N-terminus Ras-binding domain (RBD, residues 52-131) (Tran, et al., 2021). Homogenous time resolved fluorescence (HTRF) was used to monitor the interaction between wt or mutant KRAS and RAF1 or wt NRAS and RAFT. […] The intensity of the fluorescence signal emitted is proportional to binding between the two proteins. […] The fluorescence signal emitted was monitored at 665 nm and 615 nm using an Envision multimode plate reader. […]

w.t.KRAS/RAF1 = target: T3, w.t.KRAS/RAF1 (Homo sapiens, UniProt P01116); experiment: Protein-protein interaction (PPI) HTRF assay w.t.KRAS/RAF1; conditions: Table 3; wtKRAS/RAF1
T3 construct: His6-MBP (N, cleaved yes); made in house; host or cells: E. coli
T3 sequence (P01116 with tags, fused parts or gaps isoform P01116-2): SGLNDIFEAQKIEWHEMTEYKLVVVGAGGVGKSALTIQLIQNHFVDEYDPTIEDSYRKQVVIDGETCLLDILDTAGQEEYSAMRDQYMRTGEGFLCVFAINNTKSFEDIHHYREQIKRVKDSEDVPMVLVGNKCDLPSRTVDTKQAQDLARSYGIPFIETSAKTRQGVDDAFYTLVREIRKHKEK
Procedure: as §1, §2

w.t. NRAS/RAF1 = target: T4, w.t. NRAS/RAF1 (Homo sapiens, UniProt P01111); experiment: Protein-protein interaction (PPI) HTRF assay NRAS/RAF1; conditions: Table 3; wtNRAS/RAF1
T4 construct: His6-SUMO (N, cleaved yes); made in house; host or cells: E. coli (printed for KRAS and RAF1)
T4 sequence (P01111 with tags, fused parts or gaps): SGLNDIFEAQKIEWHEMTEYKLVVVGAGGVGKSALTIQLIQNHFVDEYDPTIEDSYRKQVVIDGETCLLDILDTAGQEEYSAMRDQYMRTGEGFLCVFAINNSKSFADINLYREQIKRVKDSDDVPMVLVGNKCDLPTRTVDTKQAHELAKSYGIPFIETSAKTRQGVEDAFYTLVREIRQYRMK
Procedure: as §1, §2

T1 sequence (P01116 with tags, fused parts or gaps isoform P01116-2 G12D): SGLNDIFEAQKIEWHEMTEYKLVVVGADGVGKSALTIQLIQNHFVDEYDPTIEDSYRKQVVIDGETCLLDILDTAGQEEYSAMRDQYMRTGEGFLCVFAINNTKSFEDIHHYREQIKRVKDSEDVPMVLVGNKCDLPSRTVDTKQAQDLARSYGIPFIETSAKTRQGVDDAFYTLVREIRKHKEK

Question: What does the source list for `CN(C)C(=O)c1nn2c(c1Cl)CN(c1nc(OC[C@@]34CCCN3C[C@H](F)C4)nc(N3CC4(CCc5sc(N)c(C#N)c54)C3)c1C#N)CCC2` [Compound 2, 5-[6-(2-amino-3-cyano-spiro[5,6-dihydrocyclopenta[b]thiophene-4,3′-azetidine]-1′-yl)-5-cyano-2-[[(2R,8S)-2-fluoro-1,2,3,5,6,7-hexahydropyrrolizin-8-yl]methoxy]pyrimidin-4-yl]-3-chloro-N,N-dimethyl-4,6,7,8-tetrahydropyrazolo[1,5-a][1,4]diazepine-2-carboxamide]?
Answer: IC50 (KRAS G12D/RAF1; Table 2): 0.1 to 1 µM; IC50 (KRAS G12D/RAF1; Table 4): 0.1 to 1 µM; IC50 (KRAS G12V/RAF1): 1 to 10 µM; IC50 (w.t.KRAS/RAF1): 1 to 10 µM; IC50 (w.t. NRAS/RAF1): > 100 µM

Question: `CN(C)C(=O)c1nn2c(c1Cl)CN(c1nc(OC[C@@]34CCCN3C[C@H](F)C4)nc(N3CC4(CCCc5sc(N)c(C#N)c54)C3)c1C#N)CCC2` [Compound 3, 5-[6-(2-amino-3-cyano-spiro[6,7-dihydro-5H-benzothiophene-4,3′-azetidine]-1′-yl)-5-cyano-2-[[(2R,8S)-2-fluoro-1,2,3,5,6,7-hexahydropyrrolizin-8-yl]methoxy]pyrimidin-4-yl]-3-chloro-N,N-dimethyl-4,6,7,8-tetrahydropyrazolo[1,5-a][1,4]diazepine-2-carboxamide] was tested. Which IC50 (KRAS G12D/RAF1; Table 2) did it give?
Answer: 10 to 100 µM

Question: And the IC50 (KRAS G12D/RAF1; Table 4)?
Answer: 1 to 10 µM

Question: What about the IC50 (KRAS G12V/RAF1) of the same compound?
Answer: 10 to 100 µM

Question: What about the IC50 (w.t. NRAS/RAF1) of the same compound?
Answer: > 100 µM
